Assay results reported in ChEMBL document CHEMBL5528028, “Discovery of benzopyridone cyanoacetates as new type of potential broad-spectrum antibacterial candidates” (Eur J Med Chem, 2024).

Tests used:
Staphylococcus aureus [1] = assay: Antibacterial activity against methicillin-resistant Staphylococcus aureus assessed growth inhibition by micro broth dilution method; assay type: functional
Staphylococcus aureus [2] = assay: Antibacterial activity against Staphylococcus aureus assessed growth inhibition by micro broth dilution method; assay type: functional
Staphylococcus aureus [3] = assay: Antibacterial activity against Staphylococcus aureus ATCC 25923 assessed growth inhibition by micro broth dilution method; assay type: functional
Staphylococcus aureus [4] = assay: Antibacterial activity against Staphylococcus aureus ATCC 29213 assessed growth inhibition by micro broth dilution method; assay type: functional
Enterococcus faecalis = assay: Antibacterial activity against Enterococcus faecalis assessed growth inhibition by micro broth dilution method; assay type: functional
Klebsiella pneumoniae [5] = assay: Antibacterial activity against Klebsiella pneumonia assessed growth inhibition by micro broth dilution method; assay type: functional
Escherichia coli [6] = assay: Antibacterial activity against Escherichia coli assessed growth inhibition by micro broth dilution method; assay type: functional
Escherichia coli [7] = assay: Antibacterial activity against Escherichia coli ATCC 25922 assessed growth inhibition by micro broth dilution method; assay type: functional
Pseudomonas aeruginosa [8] = assay: Antibacterial activity against Pseudomonas aeruginosa assessed growth inhibition by micro broth dilution method; assay type: functional
Pseudomonas aeruginosa [9] = assay: Antibacterial activity against Pseudomonas aeruginosa ATCC 27853 assessed growth inhibition by micro broth dilution method; assay type: functional
Acinetobacter baumannii = assay: Antibacterial activity against Acinetobacter baumannii assessed growth inhibition by micro broth dilution method; assay type: functional
Klebsiella pneumoniae [10] = assay: In vivo anti-infective effect against Klebsiella pneumonia p1-6305014 infected in mouse model assessed as reduction bacterial growth at 5 mg/kg; assay type: functional
Klebsiella pneumoniae [11] = assay: In vivo anti-infective effect against Klebsiella pneumonia p1-6305014 infected in mouse model assessed as reduction bacterial growth at 15 mg/kg; assay type: functional
[12] = Thermodynamic solubility of the compound in water; assay type: physicochemical; conditions: read-out: Therm_solubility
Erythrocyte = assay: Hemolytic activity in human RBC incubated measured upto 128 ug/ml; assay type: toxicity, cell-based; conditions: dose < 128 µg/ml
[13] = Cytotoxicity against human NOK cells assessed as cell viability at 8 ug/ml; assay type: toxicity, cell-based; conditions: nok-si, dose 8 µg/ml
[14] = Cytotoxicity against human FHC cells assessed as cell viability at 8 ug/ml; assay type: toxicity, cell-based; conditions: at 8 µg/mL, read-out: Activity
[15] = Tmax in mouse at 10 mg/kg, po; assay type: ADME, organism-based; conditions: in vivo
[16] = Cmax in mouse at 10 mg/kg, po; assay type: ADME, organism-based; conditions: in vivo
[17] = AUC (0 to t) in mouse at 10 mg/kg, po; assay type: ADME, organism-based; conditions: in vivo
[18] = AUC (0 to infinity) in mouse at 10 mg/kg, po; assay type: ADME, organism-based; conditions: in vivo
[19] = Half life in mouse at 10 mg/kg, po; assay type: ADME, organism-based; conditions: in vivo
[20] = Apparent volume of distribution in mouse at 10 mg/kg, po; assay type: ADME, organism-based; conditions: in vivo
[21] = Clearance in mouse at 10 mg/kg, po; assay type: ADME, organism-based; conditions: in vivo
[22] = AUMC (0 to t) in mouse at 10 mg/kg, po; assay type: ADME, organism-based; conditions: in vivo
[23] = AUMC (0 to infinity) in mouse at 10 mg/kg, po; assay type: ADME, organism-based; conditions: in vivo
[24] = MRT (0 to t) in mouse at 10 mg/kg, po; assay type: ADME, organism-based; conditions: in vivo
[25] = MRT (0 to infinity) in mouse at 10 mg/kg, po; assay type: ADME, organism-based; conditions: in vivo
[26] = Oral bioavailability in mouse at 10 mg/kg; assay type: ADME, organism-based; conditions: in vivo
[27] = Tmax in mouse at 10 mg/kg, iv; assay type: ADME, organism-based; conditions: in vivo
[28] = Cmax in mouse at 10 mg/kg, iv; assay type: ADME, organism-based; conditions: in vivo
[29] = Initial plasma concentration in mouse at 10 mg/kg, iv; assay type: ADME, organism-based; conditions: in vivo
[30] = AUC (0 to t) in mouse at 10 mg/kg, iv; assay type: ADME, organism-based; conditions: in vivo
[31] = AUC (0 to infinity) in mouse at 10 mg/kg, iv; assay type: ADME, organism-based; conditions: in vivo
[32] = Half life in mouse at 10 mg/kg, iv; assay type: ADME, organism-based; conditions: in vivo
[33] = Volume of distribution at steady state in mouse at 10 mg/kg, iv; assay type: ADME, organism-based; conditions: in vivo
[34] = Clearance in mouse at 10 mg/kg, iv; assay type: ADME, organism-based; conditions: in vivo
[35] = AUMC (0 to t) in mouse at 10 mg/kg, iv; assay type: ADME, organism-based; conditions: in vivo
[36] = AUMC (0 to infinity) in mouse at 10 mg/kg, iv; assay type: ADME, organism-based; conditions: in vivo
[37] = MRT (0 to t) in mouse at 10 mg/kg, iv; assay type: ADME, organism-based; conditions: in vivo
[38] = MRT (0 to infinity) in mouse at 10 mg/kg, iv; assay type: ADME, organism-based; conditions: in vivo
Staphylococcus aureus [39] = assay: Anti-biofilm activity against Staphylococcus aureus ATCC 29213 assessed as relative biofilm clearance rate at 8 times of MIC by crystal violet staining based assay; assay type: functional
Klebsiella pneumoniae [40] = assay: Anti-biofilm activity against Klebsiella pneumonia assessed as relative biofilm clearance rate at 8 times of MIC by crystal violet staining based assay; assay type: functional

CCCCCCCCn1cc(C(=O)OCC)c(=O)c2cc(F)c([C-](C#N)C(=O)OCC)cc21.[Na+] (stereo not drawn)
MIC (Staphylococcus aureus [1]): 8 µg/mL
MIC (Staphylococcus aureus [2]): 16 µg/mL
MIC (Staphylococcus aureus [3]): 0.25 µg/mL
MIC (Staphylococcus aureus [4]): 0.25 µg/mL
MIC (Enterococcus faecalis): 4 µg/mL
MIC (Klebsiella pneumoniae [5]): 0.25 µg/mL
MIC (Escherichia coli [6]): 0.25 µg/mL
MIC (Escherichia coli [7]): 0.25 µg/mL
MIC (Pseudomonas aeruginosa [8]): 0.5 µg/mL
MIC (Pseudomonas aeruginosa [9]): 0.5 µg/mL
MIC (Acinetobacter baumannii): 0.25 µg/mL
Activity (Klebsiella pneumoniae [10]): 1.5 log10CFU
Activity (Klebsiella pneumoniae [11]): 4 log10CFU
solubility thermodynamic [12]: 27.5 µg/mL
Activity (Erythrocyte): Non-Toxic
Activity [13]: Non-Toxic
viability at 8 ug/ml [14]: 70%
Tmax [15]: 30 min
Cmax [16]: 89 ng/mL
AUC(0-t) [17]: 196 ng·h/mL
AUC [18]: 241 ng·h/mL
half-life [19]: 133 min
Vz [20]: 133561 mL/kg
CL/F [21]: 698 mL/min/kg
AUMCt [22]: 523 hr.hr.ng/ml
AUMC [23]: 1035 hr.hr.ng/ml
MRT last [24]: 2.69 h
MRT [25]: 4.16 h
F [26]: 26.6%
Tmax [27]: 1.98 min
Cmax [28]: 549 ng/mL
C0 [29]: 1046 ng/mL
AUC(0-t) [30]: 89.3 ng·h/mL
AUC [31]: 90.6 ng·h/mL
half-life [32]: 12 min
Vdss [33]: 1976 mL/kg
CL [34]: 191.07 mL/min/kg
AUMCt [35]: 13.3 hr.hr.ng/ml
AUMC [36]: 15 hr.hr.ng/ml
MRT last [37]: 9 min
MRT inf [38]: 10.2 min
Activity (Staphylococcus aureus [39]): 70%
Activity (Klebsiella pneumoniae [40]): 70%
